Source: ChEMBL document CHEMBL3507680, “University of Dundee, Gates Library screen for HepG2 cell viability”

Assay: Human HepG2 cell viability assay in 384 well format
Format: toxicity, cell-based
Set-up: dose 125 nL, time 70.5 hour; concentration not given beside the values
Settings: HepG2 cells, read-out: Inhibition

Row | Structure (SMILES) | cytotoxicity at 70.5 h [%]
1 | O=C(Nc1nncs1)NC1CCCc2c1cnn2CCO (stereo not given) | 4.56
2 | CCC(CC)C(=O)Nc1ccc2oc(=O)n(CCN(C)C)c2c1 | 12.5
3 | CCC(C)C(=O)Nc1ccc2oc(=O)n(CCN(C)C)c2c1 (stereo not given) | -1.79
4 | O=C(NC1CCCCC1)NC1CCCc2c1cnn2CCO (stereo not given) | -5.64
5 | CN(C)CCn1c(=O)oc2ccc(NC(=O)N3CCCCCC3)cc21 | 35.5
6 | CCC(O)CN1CCN(C(=O)c2cnn(-c3ccccc3F)c2)CC1 (stereo not given) | 2.94
7 | CC/C=C(/C)C(=O)NCCc1csc(N2CCCC2)n1 | -0.998
8 | CC(C)(C)SCC(=O)NCCc1csc(N2CCCC2)n1 | -6.06
9 | O=C(O)c1csc(S(=O)(=O)Nc2c(F)cccc2-n2cccn2)c1 | 4.64
10 | COc1c(C)cnc(CSc2nnc(NC3CC3)s2)c1C | -1.65
11 | O=C1CCCN1Cc1nnc(SCc2ccc3c(c2)CCC3)o1 | 9.34
12 | Cc1ccc(C2COCCN2C(=O)c2cccc(N(C)C)c2)o1 (stereo not given) | -7.51
13 | CCN(CC1CN(Cc2cccnc2)CCO1)c1cccnn1 (stereo not given) | -0.418
14 | Cc1ccc(C2COCCN2C(=O)c2ccc(C)s2)o1 (stereo not given) | -9.04
15 | Cc1ccc(C2COCCN2C(=O)c2ccsc2)o1 (stereo not given) | -8.5
16 | CCN(CC1CN(Cc2nc(C3CC3)no2)CCO1)c1cccnn1 (stereo not given) | -16.6
17 | COc1ccc(C(=O)N(CCC#N)Cc2ccccn2)cc1 | -2.45
18 | Cc1n[nH]c(C)c1C1COCCN1c1ncnc2sccc12 (stereo not given) | -13
19 | CCN(CC1CN(Cc2ccccn2)CCO1)c1cccnn1 (stereo not given) | -9.99
20 | CCN(CC1CN(Cc2nccn2CC)CCO1)c1cccnn1 (stereo not given) | -9.34
21 | CCc1ncc2c(n1)CN(Cc1cccc3c1OCCO3)CC2 | -3.18
22 | CCN1CCC(NC(=O)NC2CCOc3ccc(Br)cc32)CC1 (stereo not given) | -3.03
23 | Cc1noc(C)c1CN(C)C(=O)NCCOc1ccc(F)cc1F | -6.66
24 | COC(=O)NCC(=O)NCC(C)(C)c1cccc(Br)c1 | -0.269

Row | Structure (SMILES) | cytotoxicity at 70.5 h [%]
25 | COCC(=O)N1CCCC1c1cccc(C)c1C (stereo not given) | 4.58
26 | CC(=O)N(Cc1c(F)cccc1F)C1CCCC1 | -6.67
27 | CCc1nsc(NC2CC(=O)N(C(C)(C)C)C2)n1 (stereo not given) | -8.26
28 | CC1CCCCN1C(=O)c1ccc(Br)s1 (stereo not given) | -5.12
29 | O=C(C[S+]([O-])Cc1ccccc1F)N1CCc2sccc2C1 (stereo not given) | -7.21
30 | O=C(C[S+]([O-])Cc1c(Cl)cccc1Cl)N1CCc2sccc2C1 (stereo not given) | -7.37
31 | O=C(C[S+]([O-])Cc1ccc(F)cc1)N1CCc2sccc2C1 (stereo not given) | -9.59
32 | Cc1cc(N)nc(SC2CCN(c3ccccc3F)C2=O)n1 (stereo not given) | 19
33 | O=c1c2cccnc2cnn1CC(O)c1ccc(F)c(F)c1 (stereo not given) | -6.63
34 | O=c1c2cccnc2cnn1CC(O)c1ccc(Br)cc1 (stereo not given) | 12
35 | Cc1cc(N)nc(SC2CCN(c3ccccc3)C2=O)n1 (stereo not given) | -2.2
36 | CC(C)c1nnc(NC(=O)c2cccc(OCC(F)(F)F)n2)[nH]1 | -3.15
37 | O=C(Nc1cc(C2CCOCC2)[nH]n1)c1cscn1 | -7.61
38 | CN(C(=O)CCOc1ccccc1)C1CCN(CC2CCOC2)CC1 (stereo not given) | -8.86
39 | Cc1n[nH]c(C)c1NC(=O)c1cccc(OCC(F)(F)F)n1 | -10.8
40 | Cc1ccoc1C(=O)NCCOc1ccc(C(F)(F)F)cn1 | 18.3
41 | CN1CCCN(S(C)(=O)=O)c2cc(F)ccc21 | -3.48
42 | Cc1nnc2ccc(NCC3(N4CCCCC4)CCOCC3)nn12 | -4.4
43 | CCN(Cc1ccoc1)C(=O)c1cc(S(N)(=O)=O)c(C)o1 | -5.31
44 | CC(NCc1cnc(C2CCC2)s1)c1ccc(-n2cncn2)cc1 (stereo not given) | -5.3
45 | CC1C(=O)Nc2cccnc2N1S(=O)(=O)c1cc(F)cc(F)c1 (stereo not given) | 16
46 | Cc1nc(C)c(C(C)NC(=O)NCCNc2cccc(F)c2C#N)s1 (stereo not given) | -8.61
47 | CCN(Cc1ccoc1)C(=O)c1cc2c(c(S(N)(=O)=O)c1)CCC2 | -8.02
48 | CC(NCc1cnc(C2CCC2)s1)c1cccc(-n2cccn2)c1 (stereo not given) | 16.3

Row | Structure (SMILES) | cytotoxicity at 70.5 h [%]
49 | CC(NCc1cnc(C2CCC2)s1)c1cccc(-n2ccnc2)c1 (stereo not given) | -5.22
50 | Cc1cccc(C2(C(=O)NCC(C)CN3CCCC3=O)CC2)c1 (stereo not given) | -11.5
51 | NC(=O)C1CCN(C(=O)c2ccccc2OCc2ccncc2)CC1 | -12.3
52 | Cc1cccc(COc2ccccc2C(=O)N2CCC(C(N)=O)CC2)c1 | 4.8
53 | Oc1ccc(N2CCN(Cc3ccc(F)cc3Br)CC2)cc1 | -7.04
54 | Cc1nc2cc(C(=O)N(CCC#N)CCC#N)ccc2n1C | -6.33
55 | CN(Cc1ccccc1)CC(C)(C)NC(=O)c1ccc(C(N)=O)cn1 | 1.67
56 | Cc1ccc(Br)c(S(=O)(=O)NCc2cnn(C)c2)c1 | -5.3
57 | Cn1ccnc1-c1noc(NCc2ccc(Cl)cc2)n1 | -8.5
58 | Cn1ccnc1-c1noc(NCc2ccc(Br)cc2)n1 | -7.73
59 | Cn1ccnc1-c1noc(NCc2ccccc2)n1 | -7.49
60 | CCc1noc(CS(=O)(=O)CC=C(C)C)n1 | -9.04
61 | CC(=O)NCCCNCc1c(C)nn(CC(C)C)c1N(C)C | -5.4
62 | CNS(=O)(=O)CC(=O)N(Cc1ccccc1)c1ccc(C)cc1 | -5.84
63 | CN(Cc1ccccc1)CC(C)(C)NC(=O)c1ccon1 | -4.18
64 | CCOCc1ccc(CNc2nc(OC)ncc2Cl)cc1 | -10.8
65 | COC1CCCN(C(=O)NCC(C)(C)SC)C1 (stereo not given) | -11.6
66 | Cc1ccc(-c2ncc(CN3CCOC(c4ccco4)C3)s2)o1 (stereo not given) | -6.87
67 | O=C(C1CCCN(Cc2cccnc2)C1)N1CCc2sccc2C1 (stereo not given) | -5.24
68 | OCCCN(CCn1cncn1)c1ccccc1 | 30.6
69 | CC(NS(=O)(=O)CCc1ccccn1)c1ccccc1Br (stereo not given) | 33.3
70 | Cc1csc(CNC(=O)NC(C)c2ccc3c(c2)OCCO3)n1 (stereo not given) | 5.07
71 | CN(C)S(=O)(=O)N1CCN(C(=O)c2cc(-c3ccccc3)[nH]n2)CC1 | -0.515
72 | COCCCNC(=O)Nc1cccc(Cl)c1-n1cccn1 | -3.36

Row | Structure (SMILES) | cytotoxicity at 70.5 h [%]
73 | CN(C)CC(NC(=O)c1ccn(C)c(=O)c1)c1ccccc1 (stereo not given) | 0.262
74 | CC(NC(=O)COC1CCCC1)c1nc(-c2ccccc2)c[nH]1 (stereo not given) | -1.37
75 | CNC(=O)C(NC(=O)c1ccn(C)c(=O)c1)c1ccccc1 (stereo not given) | 33.4
76 | NC(=O)C1CCCN1C1CCN(C(=O)c2ccc3c(c2)OCO3)CC1 (stereo not given) | -1.65
77 | O=C(c1cccc2c1OCO2)N1CCC(N2CCCC2)CC1 | -1.7
78 | CCOCC(=O)NS(=O)(=O)c1ccc(F)cc1C(F)(F)F | -4.87
79 | COCCS(=O)(=O)NC(C)c1cccc(C)c1C (stereo not given) | 28.4
80 | CC(Sc1n[nH]c(-c2ccc3c(c2)CCC3)n1)C(N)=O (stereo not given) | 0.8
81 | CS(=O)(=O)CCCSc1n[nH]c(-c2ccc3c(c2)CCC3)n1 | -1.26
82 | CN1C(=O)CCc2cc(NC(=O)C3CC(=O)N(CC4CC4)C3)ccc21 (stereo not given) | 2.59
83 | Brc1ccc(NCc2ccc(Cn3ccnc3)cc2)nc1 | 43.7
84 | NC(=O)CCSc1n[nH]c(-c2ccc3c(c2)CCC3)n1 | -1.76
85 | CCc1n[nH]c(C2CN(Cc3csc(COC)n3)CCO2)n1 (stereo not given) | -7.86
86 | COCCN1CC=C(c2cccc(OC)c2)CC1 | 1.42
87 | CCCc1noc(CS(=O)(=O)c2cccc(OC)c2)n1 | -5.69
88 | CC(C)N(Cc1cccnc1)C(=O)CSc1ccc(C#N)cc1 | -8.92
89 | CS(=O)(=O)c1nccn1CCOc1ccc(F)cc1Cl | -2.15
90 | COc1ccc2c(c1)CC(NCCCn1cc(C)cn1)CC2 (stereo not given) | 1.45
91 | CC(NCCN1CCC(N(C)C)CC1)c1ccc(F)cc1N(C)C (stereo not given) | 15
92 | CC1CCN(CC(O)CN2CCn3c(nnc3C3CC3)C2)CC1 (stereo not given) | 35.7
93 | Cc1cnn(CCNCc2nc(-c3ccsc3)oc2C)c1 | 7.72
94 | c1ccc2nc(NCC3(N4CCOCC4)CCSC3)cnc2c1 (stereo not given) | 28.5
95 | c1nc(NCC2(N3CCOCC3)CCSC2)c2sccc2n1 (stereo not given) | -4.54
96 | Cc1cc(C)cc(C(C)NC(=O)c2ccc(CS(C)(=O)=O)o2)c1 (stereo not given) | -3.42

Row | Structure (SMILES) | cytotoxicity at 70.5 h [%]
97 | Cc1nc(S(=O)(=O)CCn2cccn2)n(C2CCCCC2)c1C | -4.93
98 | CS(=O)(=O)CCOCCNc1cncc(Br)c1 | -3.24
99 | CCc1cnc(CNC(=O)N2CCCC(C(=O)NC)C2)s1 (stereo not given) | 12.5
100 | CCC(O)CN1CCN(C(=O)Cc2c(C)nc(C)[nH]c2=O)CC1 (stereo not given) | 3.13
101 | c1csc(-c2nnc(CSCCN3CCOCC3)o2)c1 | 12.2
102 | COc1cc(CNc2nncs2)cc(OC)c1OC | 12.6
103 | COc1ccc(CNc2nncs2)cc1F | -2.65
104 | Fc1cc(CNc2nncs2)ccc1Cl | -2.31
105 | Cc1cccc(C(C)CNC(=O)N2CCC3(C2)OCCO3)c1 (stereo not given) | 12.8
106 | COCCOCCNc1cncc(Br)c1 | -0.213
107 | CCCN(C)CC1CCN(c2ccc(Br)c(C)n2)C1 (stereo not given) | 4.09
108 | OC1CCN(Cc2ccc(CNc3ncc(Cl)cc3F)cc2)CC1 | 14.7
109 | Cc1nc(CNC(=O)N2CCCC(c3ncc[nH]3)C2)sc1C (stereo not given) | -5.05
110 | CCC(CNC(=O)N1CCOCC2(CCOCC2)C1)c1ccccc1 (stereo not given) | -5.59
111 | CC(C)CC(C)NCCCN1CCCN(C)CC1 (stereo not given) | 21.1
112 | COCCCN(Cc1ccc(F)cc1Cl)C1CCS(=O)(=O)C1 (stereo not given) | 1.64
113 | CC(CCc1ccccc1)N1CCC(C(=O)NCc2ccccc2)CC1 (stereo not given) | 0.455
114 | O=S(=O)(Cc1ccc(F)cc1)NCCc1nnc2n1CCC2 | -18.4
115 | CC(CCc1ccccc1)N1CCC(C(=O)Nc2ccccn2)CC1 (stereo not given) | 22
116 | CC(CCc1ccccc1)N1CCC(C(=O)Nc2cnccn2)CC1 (stereo not given) | -19.2
117 | CCOC(=O)CCNC(=O)c1cc(Cl)cc2cccnc12 | -4.4
118 | CCS(=O)(=O)N(C)CCCNC(=O)c1cc(Cl)cc2cccnc12 | -11
119 | O=C(c1cc(Cl)c[nH]1)N1CCN(CCc2ccccn2)CC1 | -16
120 | COc1cc(I)c(Cl)cc1C(=O)N(C)CC(=O)NC(C)(C)C | -23.4
